Results reported in publication PMC8427023, “Bithiazole Inhibitors of Phosphatidylinositol 4‐Kinase (PI4KIIIβ) as Broad‐Spectrum Antivirals Blocking the Replication of SARS‐CoV‐2, Zika Virus, and Human Rhinoviruses” (Chemmedchem, 2021).
≈ marks a conversion by molar mass, not a printed value. Where two headings read alike, the source gives them in different places.

Columns and labels:
in vitro [1] = assay type: in vitro ADME; details: PAMPA, pH 7.4; for Membrane Retention (% MR): 5 h, 500 μM
Experimental: (§1) appropriate calibration curve. For each compound, the determination was performed in three […]
(§2) Parallel Artificial Membrane Permeability Assay (PAMPA)
(§3) Each ‘donor solution’ was prepared from a solution of each compound (DMSO, 1 mM) diluted with 25 mM Phosphate Buffered Saline (PBS) at pH 7.4, up to a final concentration of 500 μM. The donor wells were filled with 150 µL of ‘donor solution’. The filters were coated with 5 μL of a solution of phosphatidylcholine in dodecane 1% (w/v) and the lower wells filled with 300 µL of ‘acceptor solution’ (50% v/v DMSO and PBS). The sandwich plate was assembled and incubated for 5 hours at room temperature under gentle shaking. At the end of the incubation time, the sandwich was disassembled and the amount of compound in the donor and acceptor wells was measured by LC-UV-MS. For each compound, the determination was performed in three independent experiments.
Apparent permeability (Papp) and membrane retention (%MR) were calculated according to the equations reported in reference. […]

physchem = assay type: physicochemical; details: pH 7.4, aqueous buffer
in vitro [2] = details: human
[3] = assay type: in vitro ADME; details: human, 24 h, 100 µM, pH 7.4
Experimental: appropriate calibration curve. […]
(§4) Stability in Human Plasma
(§5) Pooled human plasma (1.5 mL, […]), PBS (1.4 mL, pH 7.4, 25 mM) and tested compound dissolved in DMSO (100 µL, 3.0 mM) were mixed in a test tube that was incubated at 37 […]
mixed with 600 µL of cold acetonitrile and centrifuged at 5000 rpm for 15 min [3]. The supernatant was removed and analyzed by LC-UV-MS. For each compound, the determination was performed in three independent experiments. […]

[4] = Stability in medium/serum solution; assay type: in vitro ADME; details: EMEM, 2 mM L-glut, 1 % FBS, 1 % Pen/Strep, 37 °C
in vitro [5] = details: human; remark: listed apart in the source
PI4KIIIβ = target: T1, PI4KIIIβ (Homo sapiens, UniProt Q9UBF8); test: In vitro kinase inhibition assay, PI4KIIIβ; assay type: biochemical; details: mean of at least three independent experiments; 20 μM ATP
T1 construct: Recombinant full length, HIS6 -tagged PI4KIIIβ was purchased from ProQinase; His6; purchased ProQinase (Germany)

in vitro [6] = details: human; remark: listed apart in the source
ZIKV = test: Direct yield reduction assay (DYRA), ZIKV in Huh7 cells; assay type: cell-based, Zika virus; details: for IC50: Zika virus, read-out: ZIKV Huh7 IC50
hRV14 [7] = test: Multicycle CPE reduction antiviral assay, hRV14 in HeLa cells; assay type: cell-based, human rhinovirus 14; details: 3 days
hRV2 [8] = test: Multicycle CPE reduction antiviral assay, hRV2 in HeLa cells; assay type: cell-based, human rhinovirus 2; details: 3 days
[9] = Stability in medium/serum solution; assay type: in vitro ADME; details: EMEM, 2 mM L-glut, 1 % FBS, 1 % Pen/Strep, 37 °C; remark: listed apart in the source
Experimental: as §1, §2, §3
Apparent permeability (Papp) and membrane retention (%MR) were calculated according to the equations reported in reference.
as §4, §5
mixed with 600 µL of cold acetonitrile and centrifuged at 5000 rpm for 15 min [3]. The supernatant was removed and analyzed by LC-UV-MS. For each compound, the determination was performed in three independent experiments.
Stability in Medium/Serum solution
The stability of compounds under the experimental conditions used in the ENTRY-DYRA antiviral assay was evaluated. Each tested compound dissolved din DMSO (1.0 mL, 400 µM) was mixed in a test tube with EMEM, 2 mM L-glut, 1% FBS, 1% Pen/Strep solution (final concentration of the compound of 200 µM) and then incubated at 37 °C. At set time points (0.0, 0.08, 0.25, 0.50, 1.0, 3.0, and 24.0 h), samples of 100 µL were taken, mixed with 400 µL of cold acetonitrile and centrifuged at 5000 rpm for 15 min. The supernatant was removed and analyzed by UV/LC-MS. For each compound, the determination was performed in three independent experiments.

[10] = Cytotoxicity assay (CellTiter-Glo 2.0) in Calu-3 cells; assay type: cell-based; details: human, half-maximal cytotoxic concentration, read-out: SARS-CoV-2 Calu-3 CC50
SARS-CoV-2 [11] = test: microbe, parasite or virus in culture; assay type: cell-based; details: for IC50: read-out: SARS-CoV-2 Calu-3 IC50 (DYRA protocol)
in vitro [12] = details: human; remark: listed apart in the source
SARS-CoV-2 [13] = test: ENTRY-DYRA (entry inhibitor protocol), SARS-CoV-2 in Calu-3 cells; assay type: cell-based
HeLa = details: read-out: HeLa CC50; HeLa cells
[14] = Cytotoxicity assay (CellTiter-Glo 2.0) in Huh7 cells; details: human
coxsackievirus B3 (CVB3) = test system: coxsackievirus B3 (CVB3); parameters: method as in PMID 28122178, PMID 31729878; details: at low micromolar concentration; cited from earlier work
Enterovirus-A71 (EV-A71) = test system: Enterovirus-A71 (EV-A71); parameters: method as in PMID 28122178, PMID 31729878; details: at low micromolar concentration; cited from earlier work
hRV2 [15] = test system: hRV2; parameters: method as in PMID 31729878; details: HeLa cells; cited from earlier work
hRV14 [16] = test system: hRV14; parameters: method as in PMID 31729878; details: HeLa cells; cited from earlier work
[17] = Severe acute respiratory syndrome coronavirus 2, Calu-3 cells, 72 h incubation, ±SD, NA: Not active
[18] = Severe acute respiratory syndrome coronavirus 2, Calu-3, 72 h

T1 sequence (Q9UBF8 whole entry): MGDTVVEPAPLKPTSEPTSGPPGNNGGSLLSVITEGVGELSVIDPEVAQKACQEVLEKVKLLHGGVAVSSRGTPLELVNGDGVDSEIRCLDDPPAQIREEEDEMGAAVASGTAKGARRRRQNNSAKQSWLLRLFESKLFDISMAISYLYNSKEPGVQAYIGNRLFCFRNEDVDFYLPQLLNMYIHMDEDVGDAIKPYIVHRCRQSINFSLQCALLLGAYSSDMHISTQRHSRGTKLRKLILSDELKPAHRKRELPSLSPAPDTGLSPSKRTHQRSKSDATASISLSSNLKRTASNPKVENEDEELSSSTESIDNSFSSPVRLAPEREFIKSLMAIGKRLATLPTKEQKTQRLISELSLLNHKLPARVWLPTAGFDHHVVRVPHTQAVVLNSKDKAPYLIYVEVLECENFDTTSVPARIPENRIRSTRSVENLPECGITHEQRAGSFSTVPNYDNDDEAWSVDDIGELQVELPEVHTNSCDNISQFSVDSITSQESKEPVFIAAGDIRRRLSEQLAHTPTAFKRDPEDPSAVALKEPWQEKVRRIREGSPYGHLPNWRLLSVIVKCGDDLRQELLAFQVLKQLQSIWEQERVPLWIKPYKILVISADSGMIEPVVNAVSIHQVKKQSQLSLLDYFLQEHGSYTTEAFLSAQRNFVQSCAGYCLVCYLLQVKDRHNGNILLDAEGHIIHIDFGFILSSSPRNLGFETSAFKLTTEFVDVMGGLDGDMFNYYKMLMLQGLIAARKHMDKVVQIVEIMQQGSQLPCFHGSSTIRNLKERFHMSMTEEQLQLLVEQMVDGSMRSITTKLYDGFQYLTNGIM

Cc1nc(NC(=O)C(C)(C)C)sc1-c1csc(NCC(O)CO)n1 (stereo not shown) [4 a]
Membrane Retention (% MR) (in vitro [1]): < 0.1% | Papp at 5 h, 500 μM (in vitro [1]): 0.008 ×10⁻⁶ cm/s | solubility (physchem): 5.26 µg/mL (≈ 14.2 µM) | viability at 4 h, 50 µM (in vitro [2]): 96% | Plasma Stability [3]: 99.4% | Stability in Medium/Serum 48 h [4]: 97.5% | CC50 (in vitro [5]): > 200000 nM | IC50 (PI4KIIIβ): 290 ± 80 nM | CC50 at 3 days (in vitro [6]): > 30000 nM | IC50 (ZIKV; Huh-7, Huh7 cells, DYRA, 72 h): 46500 ± 2960 nM | IC50 (hRV14 [7]; Rhinovirus B, HRV14, 72 h): 2320 ± 1540 nM | IC50 (hRV2 [8]; Rhinovirus A, HRV2, 72 h): 1770 ± 620 nM | Stability in Medium/Serum 24 h [9]: 99.0% | CC50 [10]: > 100000 nM

Cc1nc(NC(=O)C(C)(C)C)sc1-c1csc(N(CCO)CCO)n1 [4 b]
Membrane Retention (% MR) (in vitro [1]): 0.94% | Papp at 5 h, 500 μM (in vitro [1]): 0.021 ×10⁻⁶ cm/s | solubility (physchem): 0.28 µg/mL (≈ 0.728 µM) | viability at 4 h, 50 µM (in vitro [2]): 92.6% | Plasma Stability [3]: 90.2% | Stability in Medium/Serum 48 h [4]: 84.9% | CC50 (in vitro [5]): 125000 nM | IC50 (PI4KIIIβ): 240 ± 50 nM | CC50 at 3 days (in vitro [6]): > 30000 nM | IC50 (ZIKV; Huh-7, Huh7 cells, DYRA, 72 h): 5000 ± 1200 nM | IC50 (hRV14 [7]; Rhinovirus B, HRV14, 72 h): 2070 ± 1450 nM | IC50 (hRV2 [8]; Rhinovirus A, HRV2, 72 h): 1370 ± 1310 nM | Stability in Medium/Serum 24 h [9]: 91.4% | CC50 [10]: > 100000 nM

Cc1nc(NC(=O)C(C)(C)C)sc1-c1csc(NCC(C)(C)O)n1 [4 c]
Membrane Retention (% MR) (in vitro [1]): < 0.1% | Papp at 5 h, 500 μM (in vitro [1]): 0.323 ×10⁻⁶ cm/s | solubility (physchem): 0.32 µg/mL (≈ 0.868 µM) | viability at 4 h, 50 µM (in vitro [2]): 98.3% | Plasma Stability [3]: 92.3% | Stability in Medium/Serum 48 h [4]: 67.3% | CC50 (in vitro [5]): 37000 nM | IC50 (PI4KIIIβ): 890 ± 200 nM | CC50 at 3 days (in vitro [6]): > 30000 nM | IC50 (ZIKV; Huh-7, Huh7 cells, DYRA, 72 h): 830 ± 310 nM | IC50 (hRV14 [7]; Rhinovirus B, HRV14, 72 h): 480 ± 140 nM | IC50 (hRV2 [8]; Rhinovirus A, HRV2, 72 h): 390 ± 10 nM | Stability in Medium/Serum 24 h [9]: 77% | CC50 [10]: > 100000 nM

Cc1nc(NC(=O)C(C)(C)C)sc1-c1csc(N(CC(C)(C)O)C2CCCCC2)n1 [4 d]
Membrane Retention (% MR) (in vitro [1]): 18.05% | Papp at 5 h, 500 μM (in vitro [1]): 11.7 ×10⁻⁶ cm/s | solubility (physchem): 0.01 µg/mL (≈ 0.0222 µM) | IC50 (SARS-CoV-2 [11]; [17]): 1570 ± 380 nM | selectivity index (SI) against SARS-CoV-2 under DYRA conditions (SARS-CoV-2 [11]; ratio between CC50 and IC50, Calu-3): 11 | viability at 4 h, 50 µM (in vitro [2]): 94.8% | Plasma Stability [3]: 92.4% | viability (in vitro [12]): > 95% | Stability in Medium/Serum 48 h [4]: 85.7% | IC50 (SARS-CoV-2 [13]; Severe acute respiratory syndrome coronavirus 2, Calu-3 cells treated 1 h before infection, compound and virus removed, 72 h incubation, read-out: SARS-CoV-2 Calu-3 IC50 (ENTRY-DYRA conditions, in parenthesis) (converted)): 370 nM | CC50 (in vitro [5]): 4000 nM | IC50 (PI4KIIIβ): 1970 ± 790 nM | CC50 at 3 days (in vitro [6]): 23800 ± 1700 nM | IC50 (ZIKV; Huh-7, Huh7 cells, DYRA, 72 h): 510 ± 50 nM | selectivity index (SI) against ZIKV (ZIKV; ratio between CC50 and IC50, Huh7): 8 | IC50 (hRV14 [7]; Rhinovirus B, HRV14, 72 h): 1400 ± 1200 nM | IC50 (hRV2 [8]; Rhinovirus A, HRV2, 72 h): 900 ± 720 nM | Stability in Medium/Serum 24 h [9]: 93.3% | CC50 [10]: 17000 nM

Cc1nc2c(NCc3cccc(S(C)(=O)=O)c3)nccn2c1-c1ccc(O)c(F)c1 [BF738735, reference compound]
CC50 (HeLa): > 30000 nM | IC50 (hRV14 [7]): 590 ± 280 nM | IC50 (hRV2 [8]): 390 ± 360 nM

CN(C)C(=O)COC(=O)Cc1ccc(OC(=O)c2ccc(NC(=N)N)cc2)cc1 [CMT, Camostat, reference compound]
IC50 (SARS-CoV-2 [11]; [18]): 820 ± 320 nM | IC50 (SARS-CoV-2 [13]; Severe acute respiratory syndrome coronavirus 2, Calu-3, read-out: SARS-CoV-2 Calu-3 IC50 (ENTRY-DYRA conditions, in parenthesis)): 40 nM | CC50 [10]: 200000 nM

CCC(CC)COC(=O)[C@H](C)N[P@](=O)(OC[C@H]1O[C@@](C#N)(c2ccc3c(N)ncnn23)[C@H](O)[C@@H]1O)Oc1ccccc1 [RMD, Remdesivir, reference compound]
IC50 (SARS-CoV-2 [11]; [17]): 110 ± 40 nM | CC50 [10]: 97000 nM

CC(C)OC(=O)[C@H](C)N[P@](=O)(OC[C@H]1O[C@@H](n2ccc(=O)[nH]c2=O)[C@](C)(F)[C@@H]1O)Oc1ccccc1 [SOF, Sofosbuivir, reference compound]
IC50 (ZIKV; Huh-7, 72 h): 2700 ± 500 nM | CC50 [14]: 200000 nM

Cc1nc(NC(=O)C(C)(C)C)sc1-c1csc(Nc2cccc(C(=O)O)c2)n1 [compound 1]
Membrane Retention (% MR) (in vitro [1]): < 0.1% | Papp at 5 h, 500 μM (in vitro [1]): 0.052 ×10⁻⁶ cm/s | solubility (physchem): 0.21 µg/mL (≈ 0.504 µM) | IC50 (SARS-CoV-2 [11]; [18]): 7450 ± 2470 nM | viability at 4 h, 50 µM (in vitro [2]): 94.1% | Plasma Stability [3]: 99.1% | Stability in Medium/Serum 48 h [4]: 93.1% | inhibition of CVB3 replication in infected cells (coxsackievirus B3 (CVB3)): inhibited | SARS-CoV-2 Calu-3 IC50 (ENTRY-DYRA conditions, in parenthesis) (SARS-CoV-2 [13]; Calu-3 cells treated 1 h before infection, compound and virus removed, 72 h incubation): no effect on the entry phase | CC50 (in vitro [5]): 110000 nM | inhibition of EV-A71 replication in infected cells (Enterovirus-A71 (EV-A71)): inhibited | IC50 (hRV2 [15]): 9700 nM | IC50 (hRV14 [16]): 15300 nM | CC50 at 3 days (in vitro [6]): 36000 nM | IC50 (ZIKV; Huh-7, 72 h): 13800 ± 4080 nM | Stability in Medium/Serum 24 h [9]: 96.4% | CC50 [10]: 45000 nM
